{"source": "patent US4208426A", "about": "“Pyranochromone derivatives and therapeutic composition comprising same for treatment of allergic diseases” (Eisai Co., Ltd., priority 1977, dated 1980)", "key": {"homologous PCA reaction": {"test_system": "homologous PCA reaction", "experiment": "Homologous passive cutaneous anaphylaxis (PCA) reaction", "type": "in vivo, rat (SD (Sprague-Dawley) strain)", "details": "rat; for Inhibition effect of PCA reaction: oral", "description": "Anti-egg albumin rat serum in amount of 0.1 ml was intracutaneously injected to the shaved back of a mail rat of SD (Sprague-Dawley) strain weighing 200±30 g. The egg-albumin as antigen in amount of 5 mg/Kg were intravenously injected, together with 40 mg/Kg of dye (Evans blue) 24 hours after antiserum injection. The test materials were given at the respective times before antigen injection as 5% suspension in gum arabic in the case of oral administration (p. o.), while as a solution in physiological salt solution in the case of the intravenous injection (i. v.). The rat was sacrificed 30 minutes after the injection of the antigen, and the skin was removed. The amount of the dye leaked at the reaction locus was measured by extraction method according to Katayama et al.; Microbiol. Immunol. 22, 89-101 (1978), to determine the inhibiting rate on the homologous PCA reaction. There were elected, as the control, cromoglycate and ethyl 6,7-dihydro-6-methyl-8H-pyrano[3,2-g]chromone-2-carboxylate which are known in the art.\nRegarding 6,7-dihydro-6,8,8,10-tetramethyl-8H-pyrano[3,2-g] chromone-2-carboxylic acid of this invention, there were determined, in the same manner, inhibition effect of PCA reaction when oral administration was carried out."}, "[1]": {"test_system": "actively sensitized rat peritoneal mast cells", "experiment": "Histamine release from actively sensitized rat peritoneal mast cells mediated by antigen-antibody reaction", "type": "cell-based, rat (SD strain)", "details": "Mast cell, egg-albumine 10 μg/ml, 37° C., read-out: Inhibition rate of histamine release", "description": "(2) Histamine release from actively sensitized rat peritoneal mast cells mediated by antigen-antibody reaction\nA male rate of SD strain weighing 200-400 g was used in this experiment. The sensitization of rats was performed by the method according to Kusner et al.; J. Pharmcol. & Exper. Ther, 184, 41-44 (1973). The mast cells were isolated 14 days after the sensitization by the method according to Johnson, et al.; Am. J. Physiol. 216, 453-459 (1969). The number of the mast cells was adjusted to 2×10^5 /ml. Each one milliliter of the cell suspension was divisionally poured into siliconized test tubes, and placed in an incubator adjusted to 37° C. The egg-albumine, as antigen, was added thereto at the final concentration of 10 μg/ml. At the same time of the addition of antigen, there is added sodium 6,7-dihydro-6,8,8,10-tetramethyl-8H-pyrano[3,2-g] chromone-2-carboxylate according to this invention in the respective concentrations.\nThe amount of histamine released from the mast cells was determined fluorimetrically according to Suzuki's method [Keio Igaku, 50, 263-270 (1973) Japan]."}, "[2]": {"details": "cited from earlier work"}}, "data": [{"smiles": "CCOC(=O)c1cc(=O)c2cc3c(cc2o1)OCCC3C", "note": "(stereo not shown) [ethyl 6,7-dihydro-6-methyl-8H-pyrano[3,2-g]chromone-2-carboxylate, reference compound]", "values": [{"measurement": "Inhibition rate of PCA reaction", "setting": "homologous PCA reaction; 20 mg/Kg p.o., before one hour", "result": 23.7, "unit": "%"}]}, {"smiles": "CCOC(=O)c1cc(=O)c2cc3c(c(OC)c2o1)OC(C)(C)CC3C", "note": "(stereo not shown) [Ethyl 6,7-dihydro-10-methoxy-6,8,8-trimethyl-8H-pyrano [3,2-g] chromone-2-carboxylate]", "values": [{"measurement": "Inhibition rate of PCA reaction", "setting": "homologous PCA reaction; 20 mg/Kg p.o., before one hour", "result": 62.2, "unit": "%"}]}, {"smiles": "Cc1c2c(cc3c(=O)cc(C(=O)O)oc13)C(C)CC(C)(C)O2", "note": "(stereo not shown) [Sodium 6,7-dihydro-6,8,8,10-tetramethyl-8H-pyrano [3,2-g] chromone-2-carboxylate]", "values": [{"measurement": "Inhibition rate of PCA reaction", "setting": "homologous PCA reaction; 0.4 mg/Kg i.v., at the same time", "result": 65.2, "unit": "%"}, {"measurement": "Inhibition rate of PCA reaction", "setting": "homologous PCA reaction; 20 mg/Kg p.o., before one hour", "result": 64.9, "unit": "%"}, {"measurement": "inhibition at 0.2 µM", "setting": "[1]; 0.2 μM", "result": 48.2, "unit": "%"}, {"measurement": "inhibition at 1 µM", "setting": "[1]; 1.0 μM", "result": 66.1, "unit": "%"}, {"measurement": "inhibition at 2 µM", "setting": "[1]; 2.0 μM", "result": 73.2, "unit": "%"}, {"measurement": "inhibition at 10 µM", "setting": "[1]; 10.0 μM", "result": 60.7, "unit": "%"}]}, {"smiles": "CCOC(=O)c1cc(=O)c2c(C)c3c(c(CC)c2o1)OC(C)(C)CC3C", "note": "(stereo not shown) [Ethyl 6,7-dihydro-10-ethyl-5,6,8,8-tetramethyl-8H-pyrano[3,2-g]chromone-2-carboxylate]", "values": [{"measurement": "Inhibition rate of PCA reaction", "setting": "homologous PCA reaction; 20 mg/Kg p.o., before one hour", "result": 64.4, "unit": "%"}]}, {"smiles": "CCOC(=O)c1cc(=O)c2cc3c(c(C)c2o1)OC(C)(C)CC3C", "note": "(stereo not shown) [Ethyl 6,7-dihydro-6,8,8,10-tetramethyl-8H-pyrano [3,2-g] chromone-2-carboxylate]", "values": [{"measurement": "Inhibition rate of PCA reaction", "setting": "homologous PCA reaction; 20 mg/Kg p.o., before one hour", "result": 63.8, "unit": "%"}]}, {"smiles": "Cc1c2c(cc3c(=O)cc(C(=O)O)oc13)C(C)CC(C)(C)O2", "note": "(stereo not shown) [6,7-Dihydro-6,8,8,10-tetramethyl-8H-pyrano [3,2-g] chromone-2-carboxylic acid]", "values": [{"measurement": "Inhibition effect of PCA reaction, dose dependence", "setting": "homologous PCA reaction; oral administration", "result": "dose-dependent inhibiting effect"}, {"measurement": "Time of administration before antigen with the most remarkable inhibition effect of PCA reaction", "setting": "homologous PCA reaction; oral administration", "result": "15 to 30", "unit": "min"}, {"measurement": "Inhibition effect of PCA reaction", "setting": "homologous PCA reaction; 1 mg/Kg, before 5 minutes", "result": 15.1, "unit": "%"}, {"measurement": "Inhibition effect of PCA reaction", "setting": "homologous PCA reaction; 3 mg/Kg, before 5 minutes", "result": 54.8, "unit": "%"}, {"measurement": "Inhibition effect of PCA reaction", "setting": "homologous PCA reaction; 10 mg/Kg, before 2 minutes", "result": 44.1, "unit": "%"}, {"measurement": "Inhibition effect of PCA reaction", "setting": "homologous PCA reaction; 10 mg/Kg, before 5 minutes (dose series)", "result": 78.5, "unit": "%"}, {"measurement": "Inhibition effect of PCA reaction", "setting": "homologous PCA reaction; 10 mg/Kg, before 5 minutes (time-course series)", "result": 62.2, "unit": "%"}, {"measurement": "Inhibition effect of PCA reaction", "setting": "homologous PCA reaction; 10 mg/Kg, before 15 minutes", "result": 82.0, "unit": "%"}, {"measurement": "Inhibition effect of PCA reaction", "setting": "homologous PCA reaction; 10 mg/Kg, before 30 minutes", "result": 84.3, "unit": "%"}, {"measurement": "Inhibition effect of PCA reaction", "setting": "homologous PCA reaction; 10 mg/Kg, before 60 minutes", "result": 54.3, "unit": "%"}, {"measurement": "Inhibition effect of PCA reaction", "setting": "homologous PCA reaction; 30 mg/Kg, before 5 minutes", "result": 90.3, "unit": "%"}]}, {"smiles": "O=C(O)c1cc(=O)c2c(OCC(O)COc3cccc4oc(C(=O)O)cc(=O)c34)cccc2o1", "note": "[Chromoglycate, reference compound]", "values": [{"measurement": "Inhibition rate of PCA reaction", "setting": "homologous PCA reaction; 6 mg/Kg i.v., at the same time", "result": 88.6, "unit": "%"}, {"measurement": "Inhibition rate of PCA reaction", "setting": "homologous PCA reaction; 20 mg/Kg p.o., before one hour", "result": 0, "unit": "%"}, {"measurement": "Effect on oral administration", "setting": "[2]", "result": "not effective when it is orally administered"}]}, {"smiles": "CCOC(=O)c1cc(=O)c2c(C)c3c(c(C)c2o1)OC(C)(C)C(C)C3", "note": "(stereo not shown) [Ethyl 6,7-dihydro-5,7,8,8,10-pentamethyl-8H-pyrano[3,2-g]chromone-2-carboxylate]", "values": [{"measurement": "Inhibition rate of PCA reaction", "setting": "homologous PCA reaction; 20 mg/Kg p.o., before one hour", "result": 47.9, "unit": "%"}]}]}
